Columns and labels:
Format in all cases: functional
[1] = system: Henosepilachna vigintioctopunctata; experiment: Antifeedant activity against adults of Henosepilachna vigintioctopunctata at 0.05 mg/cm'2 after 4 hr
[2] = system: Henosepilachna vigintioctopunctata; experiment: Antifeedant activity against adults of Henosepilachna vigintioctopunctata at 0.5 mg/cm'2 after 4 hr
[3] = system: Henosepilachna vigintioctopunctata; experiment: Antifeedant activity against adults of Henosepilachna vigintioctopunctata at 5 mg/cm'2 after 4 hr
[4] = system: Henosepilachna vigintioctopunctata; experiment: Antifeedant activity against fourth-instar nymphs of Henosepilachna vigintioctopunctata at 0.05 mg/cm'2 after 4 hr
[5] = system: Henosepilachna vigintioctopunctata; experiment: Antifeedant activity against fourth-instar nymphs of Henosepilachna vigintioctopunctata at 5 mg/cm'2 after 4 hr
[6] = system: Henosepilachna vigintioctopunctata; experiment: Antifeedant activity against fourth-instar nymphs of Henosepilachna vigintioctopunctata at 0.5 mg/cm'2 after 4 hr

Structure (SMILES)	Activity [1] [%]	Activity [2] [%]	Activity [3] [%]	Activity [4] [%]	Activity [5] [%]	Activity [6] [%]
CC(=O)OC[C@@]12[C@@H](OC(C)=O)C[C@@H](C)[C@](C)([C@@H]3C[C@H]4C=CO[C@H]4O3)[C@H]1CC[C@H](OC(C)=O)[C@]21CO1 [3-EPICARYOPTIN]	31.07	37.02	31.93	16.12	23.56	9.37
CC(=O)OC[C@@]12[C@@H](OC(C)=O)C[C@@H](C)[C@](C)([C@@H]3C[C@@H]4CCO[C@H]4O3)[C@H]1CC[C@H](OC(C)=O)[C@]21CO1 [14,15-DIHYDRO-3-EPICARYOPTIN]	10.2	8.39	39.34	21.14	39.2	20.39
C=C1CC[C@@H]2[C@](C)(CO)[C@H](O)CC[C@@]2(C)[C@@H]1C/C=C1/C(=O)OC[C@H]1O [ANDROGRAPHOLIDE]	-10.95	1.04	24.26	-16.76	54.06	-52.38
C[C@@]12CCCC(CO)(CO)[C@H]1CC[C@H](CO)[C@H]2CCC1=CCOC1=O [WIGHTIONOLIDE]	18.42	7.15	-4.1	-52.79	-11.72	-14.03
CC(=O)OC[C@@]12C=C[C@@H](C)[C@](C)([C@@H]3C[C@H]4C(OC(C)=O)CO[C@H]4O3)[C@H]1CC[C@H](OC(C)=O)[C@]21CO1 (stereo partly specified)	-20.26	22.53	23.45	-18.69	1.28	-1.39
CC(=O)OC[C@@]12[C@@H](OC(C)=O)C[C@@H](C)[C@](C)([C@@H]3C[C@H]4C=CO[C@H]4O3)[C@H]1CC[C@@H](OC(C)=O)[C@]21CO1 [CARYOPTIN]	-5.31	-10.03	84.95	34.37	44.46	72.51

From ChEMBL document CHEMBL3045920, “Antifeedant activity of some diterpenoids” (1999)
